These results are taken from patent US20240374524A1, “INCREASING PERMEATION FOR PRE-GASTRIC ABSORPTION OF ACTIVE PHARMACEUTICAL INGREDIENTS” (Catalent U.K. Swindon Zydis Limited, priority 2023, published 2024).

The test system of data set [1] is TR146 buccal cell line. As to the kind of experiment: Pre-formulation permeability of Piroxicam & permeation agent binary mixtures, TR146 cells on Transwell inserts. The note with it: for % Cumulative Permeability (n = 3) 1 min / % Cumulative Permeability (n = 3) 2 min / % Cumulative Permeability (n = 3) 5 min / % Cumulative Permeability (n = 3) 15 min / % Cumulative Permeability (n = 3) 20 min / % Cumulative Permeability (n = 3) 30 min: Piroxicam 0.35 mg in donor.

In data set [2] the test system is TR146 buccal cell line. Nature of the data set: Permeability of Famotidine/permeation agent binary mixes, TR146 cells on Transwell inserts.
A short description of data set [3]: Physicochemical properties of model APIs and permeation agents (solubility, log P, pKa, HLB).
Data set [4] in a line: Measured pH of API/permeation agent mixtures and of dispersed ODTs. The format is physicochemical.
The nature of data set [5]: Theoretical percent ionized and un-ionized API at sample pH (Henderson-Hasselbach equation). The format is physicochemical. The note with it: for Calculated % ionized / Calculated % unionized: Piroxicam at sample pH.
Data set [6] concerns TR146 buccal cell line. Nature of the data set: Permeability of reconstituted Piroxicam freeze-dried ODT, TR146 cells on Transwell inserts. The format is in vitro ADME.
The conditions of data set [7]: cited from earlier work; for HLB value: hydrophilic-lipophilic balance of surfactant.
Data set [8] concerns TR146 buccal cell line. As to the kind of experiment: Permeability of Atenolol/permeation agent binary mixes (Table 11), TR146 cells on Transwell inserts. The note with it: surfactants 1:1 molar ratio, PF127 and bile salt 2×CMC, citric acid 0.37-1 mg/ml.
Data set [9] has as its system TR146 buccal cell line. As to the kind of experiment: Pre-formulation permeability of Carvedilol/permeation agent binary mixes, TR146 cells on Transwell inserts.
The subject of data set [10] is TR146 buccal cell line. The note with it: human, 1.74 mg/ml, pH 7.
Setting [11] is: agent at 1:1 molar ratio to Piroxicam, CA after 20 and 30 minutes.
[12] abbreviates: agent at 1:1 molar ratio to Piroxicam, at 30 minutes.
[13] abbreviates: Piroxicam 0.7 mg/ml binary mixtures in distilled water, ^a after adjustment with 0.1M HCl.

Converted amounts (≈) assume the structure as drawn. “Also recorded” adds a separate entry of the source. Where two headings read alike, the source gives them in different places.

Regarding POE-(4)-sorbitan monolaurate [Tween 21], the “effect on Piroxicam permeability vs control” value in [1] (setting [11]) is on record as “increased”. In data set [1] (setting [12]), the “fold increase in Piroxicam percentage cumulative permeability vs control” value was 2.1 fold and the “percentage cumulative permeability of Piroxicam” value is recorded as 20.82%. Moreover, the “effect on Famotidine permeability vs control” value in [2] is listed as “Neither PF127 nor Tween 21 showed an enhancement; also recorded: no increase in Famotidine permeability was observed”.

One may read the pKa as the pH at which an ionisable group is half protonated. With `NCCCC[C@H](N)C(=O)O` [lysine, Lysine], the “effect on Piroxicam permeability” value in data set [1] (1:3 and 1:6 molar ratios Piroxicam to counterion) is “no significant enhancement”. In data set [3], this molecule gave a pKa of no less than 5.

For `CN1C(C(=O)Nc2ccccn2)=C(O)c2ccccc2S1(=O)=O` [Sample 3PXM, Piroxicam], in data set [4] (setting [13]), the pH came to 6.64. Moreover, in data set [1], the “% Cumulative Permeability (n = 3) 1 min” value is listed as 0.13%, the “% Cumulative Permeability (n = 3) 2 min” value is 0.41%, the “% Cumulative Permeability (n = 3) 5 min” value amounted to 1.60% and the “% Cumulative Permeability (n = 3) 15 min” value amounted to 5.88%. Moreover, in [1], the “% Cumulative Permeability (n = 3) 20 min” value worked out at 7.91% and the “% Cumulative Permeability (n = 3) 30 min” value is on record as 11.24%. In addition, in data set [5], the Calculated % ionized is given as 97.20% and the Calculated % unionized is recorded as 2.80%.

Consider `CCCCCCCCCCCCOS(=O)(=O)[O-].[Na+]` [SLS, Sodium Lauryl Sulfate], for which the “effect on Piroxicam permeability vs control” value in data set [1] (setting [11]) is reported as “increased”. The “effect on permeability of Piroxicam ODT vs control” value in [6] (0.69% w/w and 3.49% w/w (PXM:SLS 5:1 and 1:1)) is “increased”. The “permeability of 3.49% w/w sample compared to 0.69% w/w sample” value in data set [6] (Piroxicam ODT) is reported as “marginally higher but statistically significant increase”. Besides, in data set [7], the HLB value was 40. Also, the “effect on Atenolol permeability vs control” value in data set [8] is listed as “non-statistically significant increase”.

For the molecule `NC(N)=Nc1nc(CSCCC(N)=NS(N)(=O)=O)cs1` [Sample 1FAM, Famotidine], in data set [2] (Famotidine […], 0.5 ml in donor, 1 min), the “% Cumulative Permeability (n = 3) 1 min” value is 0.32%. The “% Cumulative Permeability (n = 3) 2 min” value in data set [2] (Famotidine […], 0.5 ml in donor, 2 min) came out at 0.84%. In data set [2] (Famotidine […], 0.5 ml in donor, 5 min), the “% Cumulative Permeability (n = 3) 5 min” value is given as 2.09%. Moreover, the “% Cumulative Permeability (n = 3) 15 min” value in data set [2] (Famotidine […], 0.5 ml in donor, 15 min) is 7.81%. Further, in data set [2] (Famotidine […], 0.5 ml in donor, 20 min), the “% Cumulative Permeability (n = 3) 20 min” value is 11.76%. Moreover, the “% Cumulative Permeability (n = 3) 30 min” value in [2] (Famotidine […], 0.5 ml in donor, 30 min) stood at 19.98%. Further, in data set [5] (Famotidine at sample pH), the Calculated % ionised is listed as 1.53% and the Calculated % unionised is recorded as 98.47%.

Take `CC(C)NCC(O)COc1ccc(CC(N)=O)cc1` (stereo not shown) [Sample 1ATL, Atenolol]: the pH in data set [4] (Atenolol 1.74 mg/ml binary mixes in distilled water, ^a after 0.1M NaOH) is 10.58. In addition, the pH in data set [4] (measured pH of Atenolol (1.74 mg/ml)/permeation agent mixture in distilled water) came to 10.58. Besides, in [5] (Atenolol at sample pH), the “% ionised” value came to 9.48% and the “% unionised” value is 90.52%.

Consider `C[C@H](CCC(=O)[O-])[C@H]1CC[C@H]2[C@@H]3[C@H](O)C[C@@H]4C[C@H](O)CC[C@]4(C)[C@H]3C[C@H](O)[C@]12C.O.[Na+]` [sodium cholate hydrate, Sodium Cholate hydrate], for which the “percentage cumulative permeability of Piroxicam” value in data set [1] (agent at 1×CMC, at 30 minutes) stood at 39.52%; in [1] (agent at 2×CMC, at 30 minutes) it was 14.44%. Further, the “effect on Piroxicam permeability vs control” value is “slight, statistically non-significant increase” in [1] (bile salt at 0.5 CMC); “slight and statistically non-significant” in data set [1] (bile salt at 2 CMC, pH-adjusted using citric acid). The “fold increase in Piroxicam permeability vs control” value in [1] (bile salt at 1 CMC, at 30 minutes) is 4 fold. Besides, the “fold increase in Piroxicam percentage cumulative permeability” value in [1] (bile salt at 2 CMC, at the first minute) is on record as 1.5 fold. The “effect on permeability of Piroxicam in ODT” value in data set [6] ([…] w/w, 0.5×CMC in aqueous dispersion) was “only slightly increased”. Besides, the “fold increase in Carvedilol percentage cumulative permeability vs control” value in data set [9] (at/after 30 minutes) is listed as roughly 2 fold. The “effect on Atenolol permeability vs control” value in data set [8] is “no statistical difference”.

In the case of `COc1ccccc1OCCNCC(O)COc1cccc2[nH]c3ccccc3c12` (stereo not shown) [Sample 1CAV, Carvedilol], in data set [4] (Carvedilol 1.74 mg/ml binary mixes in water, ^a after 0.1M NaOH, ^b after 0.1M HCL), the pH is 7. The “% Cumulative Permeability (n = 3) 1 min” value in data set [10] (1 min) amounted to 0.02%. For the same molecule, the “% Cumulative Permeability (n = 3) 2 min” value in [10] (2 min) is given as 0.03%. Besides, the “% Cumulative Permeability (n = 3) 5 min” value in [10] (5 min) is given as 0.03%. In addition, the “% Cumulative Permeability (n = 3) 15 min” value in data set [10] (15 min) came out at 0.10%. Besides, the “% Cumulative Permeability (n = 3) 20 min” value in [10] (20 min) is 0.13%. Besides, the “% Cumulative Permeability (n = 3) 30 min” value in data set [10] (30 min) was 0.18%. In data set [5] (Carvedilol at sample pH), the Calculated % ionised is 86.32% and the Calculated % unionised was 13.68%.

Consider `CN1C(C(=O)Nc2ccccn2)=C(O)c2ccccc2S1(=O)=O` [Sample 1PXM, Piroxicam], for which the pH in data set [4] (setting [13]) amounted to 5.30. Besides, in data set [1], the “% Cumulative Permeability (n = 3) 1 min” value came out at 0.08%, the “% Cumulative Permeability (n = 3) 2 min” value is given as 0.24%, the “% Cumulative Permeability (n = 3) 5 min” value is recorded as 0.96% and the “% Cumulative Permeability (n = 3) 15 min” value was found to be 3.82%. For the same molecule, in data set [1], the “% Cumulative Permeability (n = 3) 20 min” value is listed as 5.89% and the “% Cumulative Permeability (n = 3) 30 min” value is 9.96%. In [5], the Calculated % ionized is recorded as 61.31% and the Calculated % unionized is listed as 38.69%.

For `CCCCCCCCCC(=O)O` [capric acid, Capric acid], the “effect on Piroxicam permeability vs control” value in data set [1] (setting [11]) is given as “significantly reduced”.

As for `COc1ccccc1OCCNCC(O)COc1cccc2[nH]c3ccccc3c12` (stereo not shown) [Carvedilol], in [7], the water solubility was 4.44 µg/mL (≈ 10.9 µM).

Take `CCCCCCCCCCCCO[C@@H]1O[C@H](CO)[C@@H](O[C@H]2O[C@H](CO)[C@@H](O)[C@H](O)[C@H]2O)[C@H](O)[C@H]1O` [DDM, Dodecyl-B-D-Maltoside]: the “effect on Piroxicam permeability vs control” value in [1] (setting [11]) was “increased”. In data set [1] (setting [12]), the “fold increase in Piroxicam percentage cumulative permeability vs control” value is 2.6 fold and the “percentage cumulative permeability of Piroxicam” value worked out at 25.60%. In addition, in data set [2] (1:1 molar ratio, at the 20 and 30 minute marks), the “difference in Famotidine permeability vs control” value is on record as “no significant difference”. Moreover, in data set [2] (1:1 molar ratio, first 5 through 15 minutes), the “fold increase in Famotidine permeability vs control” value was 3 fold. Also, the “effect on Carvedilol permeability vs control” value in data set [9] (PF127 at 2×CMC, other surfactants at 1:1 molar ratio) is “No significant effect”. The HLB value in data set [7] is listed as 13.5. In addition, the “effect on Atenolol permeability vs control” value in data set [8] is “no statistically significant difference”.

In the case of Sorbitan monooleate [Span 80], the “effect on Piroxicam permeability vs control” value in [1] (setting [11]) is given as “reduce the Piroxicam permeability significantly”. Also, the “fold increase in Famotidine permeability vs control” value in data set [2] (1:1 molar ratio, time not stated) is listed as 2 fold.

Consider `CN1C(C(=O)Nc2ccccn2)=C(O)c2ccccc2S1(=O)=O` [Piroxicam], for which, in [7], the pKa is 5.1 and the water solubility is 143 µg/mL (≈ 432 µM).
